Test results: PubChem BioAssay (NCI)
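Following 48 hours of exposure in 96-well plates, responses at five concentrations were used to interpolate endpoints linearly. TGI denotes the concentration required for complete inhibition of growth.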

What was measured:
Assay in all cases: NCI tumour cell line growth inhibition, 48 h
MALME-3M melanoma = system: MALME-3M melanoma
OVCAR-5 ovarian = system: OVCAR-5 ovarian
MDA-MB-231 breast = system: MDA-MB-231 breast
IGROV1 ovarian = system: IGROV1 ovarian
HCT-15 colon = system: HCT-15 colon
MCF7 breast = system: MCF7 breast
SN12C renal = system: SN12C renal
TK-10 renal = system: TK-10 renal
SK-MEL-28 melanoma = system: SK-MEL-28 melanoma
SF-295 CNS = system: SF-295 CNS
LOX IMVI melanoma = system: LOX IMVI melanoma
SNB-75 CNS = system: SNB-75 CNS
RXF 393 renal = system: RXF 393 renal
UACC-62 melanoma = system: UACC-62 melanoma

Structure (SMILES) | TGI (MALME-3M melanoma) [µM] | TGI (OVCAR-5 ovarian) [µM] | TGI (MDA-MB-231 breast) [µM] | TGI (IGROV1 ovarian) [µM] | TGI (HCT-15 colon) [µM] | TGI (MCF7 breast) [µM] | TGI (SN12C renal) [µM] | TGI (TK-10 renal) [µM] | TGI (SK-MEL-28 melanoma) [µM] | TGI (SF-295 CNS) [µM] | TGI (LOX IMVI melanoma) [µM] | TGI (SNB-75 CNS) [µM] | TGI (RXF 393 renal) [µM] | TGI (UACC-62 melanoma) [µM]
CCOC(=O)CCCN | > 100 | > 100 | > 100 | > 100 | > 100 | > 100 | > 100 | > 100 | > 100 | > 100 | > 100 | > 100 | > 100 | –
COc1ccc(C2c3cc4c(cc3OC(N3CCOCC3)C2C)OCO4)cc1OC (stereo not drawn) | > 100 | > 100 | > 100 | > 100 | > 100 | > 96 | > 100 | > 88.8 | > 100 | 32.8 | > 93.7 | 21.4 | 25.4 | > 82.9
O=C(CSc1nc2ccccc2c(=O)n1-c1ccccc1)N=Nc1c(O)[nH]c2ccc(Br)cc12 | 5.74 | 8.53 | 3.58 | 5.03 | 30.2 | > 27.9 | 4.22 | 12.4 | 13.8 | 8.93 | > 31.5 | 11.5 | 7.68 | 25.9
C#CCOC(=O)C=[N+]=[N-] | > 10 | > 10 | > 10 | > 10 | > 10 | > 10 | > 10 | – | > 10 | > 10 | > 10 | – | > 10 | > 10
CCCCOc1ccc(/C=C/C2=[N+](CCO)CCO2)cc1 | > 100 | > 100 | > 100 | > 100 | > 100 | > 100 | > 100 | > 100 | > 100 | > 100 | – | > 100 | 63.3 | > 100
O=C1CC(Nc2ccccc2)c2c(Cl)sc(Cl)c21 (stereo not drawn) | 2.83 | 6.23 | 3.42 | 3.44 | 2.36 | 5.21 | 2.66 | 3.26 | 3.54 | 19.5 | 2.09 | 4.52 | – | 2.69
c1ccc(CCCN2C3CCC2CN(CCOC(c2ccccc2)c2ccccc2)C3)cc1 | 25.2 | 25.8 | 21 | 27 | 18.1 | 25.8 | 24.8 | 25.6 | 28.2 | 26.9 | 24.5 | 20.8 | – | 25.5
CC1=C[C@H](C[C@]2(C)c3c(c4c(C)cccc4oc3=O)O[C@@H]2C)OC1=O | > 100 | > 100 | > 100 | > 100 | > 100 | > 100 | > 100 | > 100 | – | > 100 | > 100 | > 100 | – | > 100
CCN1CC2=C(OC(N)=C(C#N)C2c2ccc(Cl)cc2)/C(=C/c2ccc(Cl)cc2)C1 (stereo not drawn) | 84.7 | > 100 | 69.2 | > 100 | > 100 | > 100 | – | > 100 | 42.9 | > 100 | > 100 | 34.2 | 31.9 | > 100
CCCCOC(=O)Nc1ccc(S(=O)(=O)Nc2c(Cl)cccc2Cl)cc1 | 62.7 | > 100 | 67.2 | 79.5 | 79.5 | 92.4 | > 100 | 77.9 | 81.5 | > 100 | > 100 | – | > 100 | 54.6
CCN(CC)P(=O)(c1ccc2c(c1)OCCOCCOCCOCCO2)N(CC)CC | > 100 | – | > 100 | > 100 | > 100 | > 100 | > 100 | > 100 | > 100 | > 100 | > 100 | > 100 | – | > 100
CCOC(=O)c1nc(SC)sc1NC(=O)c1ccc(OC)cc1 | 88.8 | > 100 | > 100 | > 100 | > 100 | > 100 | > 100 | 54.7 | > 100 | > 100 | > 100 | – | > 100 | > 100
C[C@]12CC[C@H]3[C@@H](CC=C4C[C@@H](N5CCCC5)CC[C@@]43C)[C@@H]1C/C(=C\c1ccc([N+](=O)[O-])cc1)[C@@H]2O | 32.1 | – | 30.2 | 28.2 | 28.4 | 68.9 | 27.5 | 35.8 | 28.2 | 96.7 | 30.9 | – | 57.8 | 29.3
Cn1c2ccccc2n2c(=O)c(-c3ccc(Cl)cc3)nnc12 | > 100 | > 100 | > 100 | > 100 | > 100 | > 100 | > 100 | > 100 | > 100 | > 100 | > 100 | > 100 | > 100 | –
CCOC(=O)c1nc2ccccc2nc1Nc1cc(OC)c(OC)c(OC)c1 | > 100 | > 100 | > 100 | > 100 | > 100 | > 100 | > 100 | – | > 100 | > 100 | – | > 100 | – | > 100
CCO/C(O)=c1/s/c(=C2/SC(=S)N(c3ccc(C)cc3)C2=O)n(-c2ccccc2)c1=N | > 100 | > 100 | 59 | > 100 | > 100 | > 100 | > 100 | > 100 | > 76.5 | 59.7 | – | 22 | – | > 100
CCOC(=O)c1ccc(-c2onc(C)c2Br)[nH]1 | > 100 | > 100 | > 100 | > 100 | > 100 | > 100 | – | > 100 | > 100 | > 100 | – | > 100 | 96.1 | > 100
COc1cc(OC)c(-n2[nH]c(=O)n(C)c2=O)c(OC)c1 | > 100 | > 100 | > 100 | > 100 | > 100 | > 100 | > 100 | > 100 | > 100 | – | > 100 | > 100 | > 100 | > 100
